Source: US10183938B2, “Geminal substituted quinuclidine amide compounds as agonists of α-7 nicotonic acetylcholine receptors” (AXOVANT SCIENCES GMBH, priority 2014, dated 2019)
Structures can show the parent of a compound that is named as a salt.

What follows are molecules tested against human α7 nAChRs transiently expressed in Xenopus laevis oocytes (Homo sapiens (Human), UniProt P36544) (assay: Oocyte electrophysiology screen (TEVC)). Conditions: 0.01 mM test compound, peak current relative to 0.2 mM ACh.
Type: cell-based
Description: Oocyte Electrophysiology Screen (% ACh @ 10 μM Oocyte)
The Oocyte Electrophysiology Screen studies were performed under contract by HiQScreen Geneva, Switzerland. All experiments were carried out at human α7 nAChRs transiently expressed in Xenopus laevis oocytes using the method of cDNA expression. Currents evoked by acetylcholine or other agonist ligands were recorded using the standard two-electrode voltage-clamp configuration (TEVC). X. laevis oocytes were prepared and injected using standard procedures. Briefly, ovaries were harvested from X. laevis females that were deeply anesthetized and pithed following the animal rights rule from the Geneva canton. A small piece of ovary was isolated for immediate preparation while the remaining part was placed at 4° C. in a sterile Barth solution containing in mM: NaCl 88, KCl 1, NaHCO3 2.4, HEPES 10, MgSO4.7H2O 0.82, Ca(NO3)2.4H2O 0.33, CaCl2.6H2O 0.41, at pH 7.4, and supplemented with 20 μg/mL of kanamycin, 100 unit/mL penicillin and 100 μg/mL streptomycin. […] Cells were held at −80 mV. Data were filtered at 10 Hz, captured at 100 Hz and analyzed using proprietary data acquisition and analysis software running under Matlab (Mathworks Inc.).
Experimental Protocol and Analysis
After establishing a baseline transmembrane current, acetylcholine (ACh) was applied for 5 seconds at a concentration of 0.2 mM to establish a control ACh-evoked current response. Following a wash period of 90 s in OR2 medium (free of ACh), cells were then exposed for 30 s to the test compound applied at 0.01 mM. The same reference ACh test pulse was immediately given at the end of the compound exposure and again after 90 s of recovery in OR2 Medium (free of ACh or test compound). All data were determined in triplicate. The response evoked by the test compound was expressed as a percentage of that evoked by ACh: Response (% ACh)=100×(Itest/IACh) where Itest is the peak inward current measured during exposure to 0.01 mM of test compound and IACh is the peak inward current measured in the presence of ACh.

human α7 nAChRs transiently expressed in Xenopus laevis oocytes, sequence (P36544 23-502 limits assumed): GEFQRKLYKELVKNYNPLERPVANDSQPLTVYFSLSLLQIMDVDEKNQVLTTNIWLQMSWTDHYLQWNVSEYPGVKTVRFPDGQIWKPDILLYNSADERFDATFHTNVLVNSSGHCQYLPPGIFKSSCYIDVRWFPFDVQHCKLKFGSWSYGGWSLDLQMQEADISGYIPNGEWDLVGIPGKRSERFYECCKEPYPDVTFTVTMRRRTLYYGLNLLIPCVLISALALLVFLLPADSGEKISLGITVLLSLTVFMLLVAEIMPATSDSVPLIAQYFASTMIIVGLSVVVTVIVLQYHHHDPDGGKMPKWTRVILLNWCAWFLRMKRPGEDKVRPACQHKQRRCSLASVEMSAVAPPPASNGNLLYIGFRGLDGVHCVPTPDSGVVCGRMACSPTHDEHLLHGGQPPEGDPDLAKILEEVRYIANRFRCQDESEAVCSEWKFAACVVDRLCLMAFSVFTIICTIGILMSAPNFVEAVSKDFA

Row | SMILES | % ACh @ 10 μM Oocyte
1 | O=C(NC1C2CCN(CC2)C12CC2)c1cc2ccc(C(F)(F)F)cc2s1 (single isomer, unassigned; enantiomer1) [63a, N-(1′-azaspiro[cyclopropane-1,2′-bicyclo[2.2.2]octan]-3′-yl)-6-(trifluoromethyl)benzo[b]thiophene-2-carboxamide-enantiomer1] | 3 % ACh
2 | O=C(NC1C2CCN(CC2)C12CC2)c1cc2cc(Cl)c(Cl)cc2s1 (single isomer, unassigned; enantiomer1) [67a, 5,6-dichloro-N-(1′-azaspiro[cyclopropane-1,2′-bicyclo[2.2.2]octan]-3′-yl)benzo[b]thiophene-2-carboxamide-enantiomer1 hydrochloride] | 1 % ACh
3 | O=C(NC1C2CCN(CC2)C12CC2)c1cc2cccc(Cl)c2s1 (single isomer, unassigned; enantiomer2) [56b, 7-chloro-N-(1′-azaspiro[cyclopropane-1,2′-bicyclo[2.2.2]octan]-3′-yl)benzo[b]thiophene-2-carboxamide-enantiomer2] | 0 % ACh
4 | O=C(NC1C2CCN(CC2)C12CC2)c1ccc2ccsc2c1 (single isomer, unassigned; enantiomer2) [58b, N-(1′-azaspiro[cyclopropane-1,2′-bicyclo[2.2.2]octan]-3′-yl)benzo[b]thiophene-6-carboxamide-enantiomer2] | 5 % ACh
5 | O=C(NC1C2CCN(CC2)C12CC2)c1ccc2occc2c1 (single isomer, unassigned; enantiomer2) [59b, N-(1′-azaspiro[cyclopropane-1,2′-bicyclo[2.2.2]octan]-3′-yl)benzofuran-5-carboxamide-enantiomer2] | 27 % ACh
6 | O=C(NC1C2CCN(CC2)C12CC2)c1cc2cccc(C(F)(F)F)c2s1 (single isomer, unassigned; enantiomer2) [60b, N-(1′-azaspiro[cyclopropane-1,2′-bicyclo[2.2.2]octan]-3′-yl)-7-(trifluoromethyl)benzo[b]thiophene-2-carboxamide-enantiomer2] | 1 % ACh
7 | O=C(NC1C2CCN(CC2)C12CC2)c1cc2ccc(F)cc2s1 (single isomer, unassigned; enantiomer2) [61b, 6-fluoro-N-(1′-azaspiro[cyclopropane-1,2′-bicyclo[2.2.2]octan]-3′-yl)benzo[b]thiophene-2-carboxamide-enantiomer2] | 1 % ACh
8 | O=C(NC1C2CCN(CC2)C12CC2)c1cc2ccc(C(F)(F)F)cc2s1 (single isomer, unassigned; enantiomer2) [63b, N-(1′-azaspiro[cyclopropane-1,2′-bicyclo[2.2.2]octan]-3′-yl)-6-(trifluoromethyl)benzo[b]thiophene-2-carboxamide-enantiomer2] | 3 % ACh
9 | O=C(NC1C2CCN(CC2)C12CC2)c1cc2cc(F)ccc2s1 (single isomer, unassigned; enantiomer2) [64b, 5-fluoro-N-(1′-azaspiro[cyclopropane-1,2′-bicyclo[2.2.2]octan]-3′-yl)benzo[b]thiophene-2-carboxamide-enantiomer2] | 1 % ACh

Same assay, conditions: 0.01 mM test compound, peak current relative to 0.2 mM ACh; hydrochloride

Row | SMILES | % ACh @ 10 μM Oocyte
10 | CC1(C)C(NC(=O)c2cc3ccccc3s2)C2CCN1CC2 (single isomer, unassigned; enantiomer1) [1a, N-(2,2-dimethylquinuclidin-3-yl)benzo[b]thiophene-2-carboxamide-enantiomer1 hydrochloride] | 1470 % ACh
11 | O=C(NC1C2CCN(CC2)C12CC2)c1cc2ccccc2s1 (single isomer, unassigned; enantiomer1) [54a, N-(1′-azaspiro[cyclopropane-1,2′-bicyclo[2.2.2]octan]-3′-yl)benzo[b]thiophene-2-carboxamide-enantiomer1 hydrochloride] | 4.5 % ACh
12 | O=C(NC1C2CCN(CC2)C12CC2)c1cc2cccc(F)c2s1 (single isomer, unassigned; enantiomer1) [57a, 7-fluoro-N-(1′-azaspiro[cyclopropane-1,2′-bicyclo[2.2.2]octan]-3′-yl)benzo[b]thiophene-2-carboxamide-enantiomer1 hydrochloride] | 386 % ACh
13 | Nc1ccc2cc(C(=O)NC3C4CCN(CC4)C34CC4)sc2c1 (single isomer, unassigned; enantiomer1) [62a, 6-amino-N-(1′-azaspiro[cyclopropane-1,2′-bicyclo[2.2.2]octan]-3′-yl)benzo[b]thiophene-2-carboxamide-enantiomer1 hydrochloride] | 35 % ACh
14 | O=C(NC1C2CCN(CC2)C12CC2)c1cc2cc(Cl)ccc2s1 (single isomer, unassigned; enantiomer1) [66a, 5-chloro-N-(1′-azaspiro[cyclopropane-1,2′-bicyclo[2.2.2]octan]-3′-yl)benzo[b]thiophene-2-carboxamide-enantiomer1 hydrochloride] | 2 % ACh
15 | O=C(NC1C2CCN(CC2)C12CC2)c1cc2cc(Cl)ccc2s1 (single isomer, unassigned; enantiomer1) [66b, 5-chloro-N-(1′-azaspiro[cyclopropane-1,2′-bicyclo[2.2.2]octan]-3′-yl)benzo[b]thiophene-2-carboxamide-enantiomer1 hydrochloride] | 29 % ACh
16 | Cc1ccc2sc(C(=O)NC3C4CCN(CC4)C34CC4)cc2c1 (single isomer, unassigned; enantiomer1) [69a, 5-methyl-N-(1′-azaspiro[cyclopropane-1,2′-bicyclo[2.2.2]octan]-3′-yl)benzo[b]thiophene-2-carboxamide-enantiomer1 hydrochloride] | 162 % ACh
17 | O=C(NC1C2CCN(CC2)C12CC2)c1cc2cc(C(F)(F)F)ccc2s1 (single isomer, unassigned; enantiomer1) [70a, N-(1′-azaspiro[cyclopropane-1,2′-bicyclo[2.2.2]octan]-3′-yl)-5-(trifluoromethyl)benzo[b]thiophene-2-carboxamide-enantiomer1 hydrochloride] | 2 % ACh
18 | O=C(NC1C2CCN(CC2)C12CC2)c1cc2ccc(C3CC3)cc2s1 (single isomer, unassigned; enantiomer1) [71a, 6-cyclopropyl-N-(1′-azaspiro[cyclopropane-1,2′-bicyclo[2.2.2]octan]-3′-yl)benzo[b]thiophene-2-carboxamide-enantiomer1 hydrochloride] | 739 % ACh
19 | O=C(NC1C2CCN(CC2)C12CC2)c1cc2cc(C3CC3)ccc2s1 (single isomer, unassigned; enantiomer1) [72a, 5-cyclopropyl-N-(1′-azaspiro[cyclopropane-1,2′-bicyclo[2.2.2]octan]-3′-yl)benzo[b]thiophene-2-carboxamide-enantiomer1 hydrochloride] | 188 % ACh
20 | COc1ccc2cc(C(=O)NC3C4CCN(CC4)C34CC4)sc2c1 (single isomer, unassigned; enantiomer1) [73a, 6-methoxy-N-(1′-azaspiro[cyclopropane-1,2′-bicyclo[2.2.2]octan]-3′-yl)benzo[b]thiophene-2-carboxamide-enantiomer1 hydrochloride] | 1036 % ACh
21 | COc1ccc2sc(C(=O)NC3C4CCN(CC4)C34CC4)cc2c1 (single isomer, unassigned; enantiomer1) [74a, 5-methoxy-N-(1′-azaspiro[cyclopropane-1,2′-bicyclo[2.2.2]octan]-3′-yl)benzo[b]thiophene-2-carboxamide-enantiomer1 hydrochloride] | 32 % ACh
22 | CC1(C)C(NC(=O)c2cc3ccccc3s2)C2CCN1CC2 (single isomer, unassigned; enantiomer2) [1b, N-(2,2-dimethylquinuclidin-3-yl)benzo[b]thiophene-2-carboxamide-enantiomer2 hydrochloride] | 2 % ACh
23 | O=C(NC1C2CCN(CC2)C12CC2)c1cc2ccccc2s1 (single isomer, unassigned; enantiomer2) [54b, N-(1′-azaspiro[cyclopropane-1,2′-bicyclo[2.2.2]octan]-3′-yl)benzo[b]thiophene-2-carboxamide-enantiomer2 hydrochloride] | 1319 % ACh
24 | O=C(NC1C2CCN(CC2)C12CC2)c1cc2cccc(F)c2s1 (single isomer, unassigned; enantiomer2) [57b, 7-fluoro-N-(1′-azaspiro[cyclopropane-1,2′-bicyclo[2.2.2]octan]-3′-yl)benzo[b]thiophene-2-carboxamide-enantiomer2 hydrochloride] | 4 % ACh
25 | Nc1ccc2cc(C(=O)NC3C4CCN(CC4)C34CC4)sc2c1 (single isomer, unassigned; enantiomer2) [62b, 6-amino-N-(1′-azaspiro[cyclopropane-1,2′-bicyclo[2.2.2]octan]-3′-yl)benzo[b]thiophene-2-carboxamide-enantiomer2 hydrochloride] | 995 % ACh
